The values below come from paper PMC8740768 (Proceedings of the National Academy of Sciences of the …, 2021).

The chains are these.
B1: protease-associated domain of vacuolar sorting receptor isoform 1 (VSR1-PA) (domain or fragment, Arabidopsis thaliana, UniProt P93026 20-182, looked up)
chain: RFVVEKNNLKVTSPDSIKGIYECAIGNFGVPQYGGTLVGTVVYPKSNQKACKSYSDFDISFKSKPGRLPTFVLIDRGDCYFTLKAWIAQQAGAAAILVADSKAEPLITMDTPEEDKSDADYLQNITIPSALITKTLGDSIKSALSGGDMVNMKLDWTESVPHP
B4: C-terminal peptide of CRU1 (YRVAAA) (peptide)
peptide: YRVAAA

Data set [1] concerns soybean seeds. The following applies: cited from earlier work.
The subject of data set [2] is VSR1-NT. The experiment in a line: Competitive peptide pull-down: elution of Cru1-ctVSD-bound VSR1-NT. The following applies: 2 mM peptide in VSR binding buffer, 4C, 4 hours, T7 immunoblot. The arrangement: species or system Arabidopsis thaliana. (In western blotting, separated proteins are transferred to a membrane and probed.)
The test system of data set [3] is VSR1-PA. The following applies: cited from earlier work.
Data set [4] has as its system VSR1-NT. Description: Competitive peptide pull-down: elution of aleurain-ssVSD-bound VSR1-NT. More on the design: species or system Arabidopsis thaliana. The following applies: 2 mM peptide in VSR binding buffer, 4C, 4 hours; T7 immunoblot.
Data set [5] concerns PSV. The settings on record: C terminus of phaseolin; cited from earlier work.
Data set [6] relates to phaseolin. The settings on record: cited from earlier work.
In data set [7] the test system is VSR1. The settings on record: cited from earlier work.
Data set [8] has as its system VSR1-PA-R95M. The experiment in a line: Thermal shift assay. Format: binding, Arabidopsis thaliana. The settings on record: 5 mM peptide, 50 μM VSR1-PA-R95M, pH 7.1; n = 3; ns P > 0.05.
Data set [9] deals with B4. Description: thermal shift assay.
Data set [10] addresses B1. Description: differential scanning fluorimetry, isothermal analysis. Background: Differential scanning fluorimetry follows unfolding on heating by fluorescence.
The target in data set [11] is B1. Described as above. This is another data set of the same source.
The target of data set [12] is B1. The experiment in a line: crystal structure.

“Also recorded” adds a separate entry of the source. Read-outs that look alike come from different tables or passages of the source.

In the case of 612PLSSILRAFY621, the “Targeting of GFP to the PSV” value in data set [1] is “sufficient to target GFP to the PSV in soybean seeds”.

Turning to “ADSNPIRPVT [aleurain-ssVSD, reference compound]”, the “Elution of Cru1-ctVSD-bound VSR1-NT” value in [2] is “not by aleurain-ssVSD”. For the same molecule, the “Interaction of VSR1-PA with ssVSD” value in data set [3] is reported as “VSR1-PA binds to the residues (ADS) preceding the NPIR motif”. The “Elution of aleurain-ssVSD-bound VSR1-NT” value in [4] is listed as “eluted”.

As for AFVY, the “Targeting of seed proteins to the PSV” value in data set [5] is “essential for targeting seed proteins to the PSV”. Besides, the “Effect of removing the C-terminal residues on phaseolin” value in data set [6] is “abolished aggregation of phaseolin and missorted it to the extracellular space”.

Turning to SYGRPRVAAA [Cru1], the “Elution of Cru1-ctVSD-bound VSR1-NT” value in data set [2] (listed as Cru1-ctVSD) is listed as “only eluted by ctVSD of CRU1”. For the same molecule, the “Binding to VSR1” value in data set [7] (earlier studies) was “VSR1 could bind to the C-terminal peptide of CRU1; also recorded: VSR1 can bind to the C-terminal sequence”. In addition, in data set [7] (pull-down assay), the “Calcium dependence of binding to VSR1” value is recorded as “calcium-dependent”. For the same molecule, in data set [4], the “Elution of aleurain-ssVSD-bound VSR1-NT” value is on record as “eluted”.

As for SYGRPRVAAAP [Cru1+P], the “Elution of Cru1-ctVSD-bound VSR1-NT” value in data set [2] is “not by aleurain-ssVSD and Cru1+P”. Also, the “Elution of aleurain-ssVSD-bound VSR1-NT” value in [4] is reported as “not eluted”.

As for YRVAAA, the “Change in Tm of VSR1-PA-R95M (in words)” value in data set [8] was “no significant change in the Tm of VSR1-PA-R95M”.

B1: the “increase of Tm” value in data set [9] was 5.3 °C.

B2: YSDRFV peptide derived from the ctVSD of VL22 (peptide)
peptide: YSDRFV
Take B2: the equilibrium dissociation constant (Kd) in data set [10] came to 1 mM; in data set [11], 3.2 mM.

B3: C-terminal pentapeptide (468RVAAA472) of CRU1 (peptide)
peptide: RVAAA
With B3, the binding result in data set [12] is “binds”.

As for B4, the dissociation constant Kd came out at 2.6 mM in data set [10] and 9.6 mM in data set [11].

For orientation: Kd means a measure of binding affinity in units of concentration.
